From patent US7368232B2, “High-throughput assay for virus entry and drug screening” (priority 2003, dated 2008)

Legend:
[1] = test system: VSV-G pseudotyped virus; assay type: cell-based, vesicular stomatitis virus
[2] = test system: VSV-G pseudotyped virus containing env-luc1; assay type: cell-based, vesicular stomatitis virus
[3] = test system: Friend MLV containing env-luc1; assay type: cell-based, Friend murine leukemia virus
[4] = test system: VSV env pseudotyped virus; assay type: cell-based, Vesicular Stomatitis Virus
[5] = test system: Rabies env pseudotyped virus; assay type: cell-based
[6] = test system: MLV env pseudotyped virus; assay type: cell-based, murine leukemia virus
[7] = test system: Ebola env pseudotyped virus; assay type: cell-based

Row | Structure (SMILES) | reduction of infection (β-galactosidase infection assay) [1] [fold] | decrease of luciferase entry signal [2] [fold] | effect on luciferase entry signal [2] | effect on luciferase entry signal [3] | effect on luciferase activities in the viral entry assay [4] | effect on luciferase activities in the viral entry assay [5] | effect on luciferase activities in the viral entry assay [6] | effect on entry of Ebola virus env pseudotyped particles [7]
1 | CCN(CC)CCCC(C)Nc1ccnc2cc(Cl)ccc12 (stereo not shown) [chloroquine] | 20 | 7 | inhibited the signal | only weakly affected |  |  |  | 
2 | CO/C1=C\C(C)=C\[C@@H](C)[C@@H](O)[C@@H](C)C/C(C)=C/C=C/[C@H](OC)[C@@H]([C@@H](C)[C@@H](O)[C@H](C)[C@@]2(O)C[C@@H](O)[C@H](C)[C@@H](C(C)C)O2)OC1=O [bafilomycin A1] | 100 |  | inhibited the signal | only weakly affected | completely inhibit | completely inhibit | little effect | significantly inhibited
3 | Cl.N [ammonium chloride] |  |  | inhibited the signal | only weakly affected | completely inhibit | completely inhibit |  | significantly inhibited
